Reference: US4225607A, “Pharmaceutical composition containing a xanthine derivative” (Wulfing; Johann A., priority 1979, dated 1980)
“And” between values parts separate entries of the source, which are not always exact repeats. Equal values may be shown once.

Experiments:
[1] = tested on: ischaemic skeletal muscle; assay: Contractility of ischaemic skeletal (calf) muscle, direct stimulation, femoral artery graded occlusion; type: in vivo; conditions: cat; for dose range of activity: contractility and pO2 of ischaemic skeletal muscle; for changes in contractility and pO2 in comparison with Compound A (in words): 5-32 mg/kg vs Compound A at 125 μg/kg
Procedure: Cats of either sex were anaesthetized with urethane/chloralose (120/60 mg/kg i.p.). […] The intraduodenal (i.d.) application of compound was conducted by means of a plastic catheter, which was inserted into the duodenum.
Cats of either sex were anaesthetized as for pO2 measurement. After dissection of the skin of the calf muscles, the sciatic nerve was cut about 3 cm proximal to the knee. The tendon of the calf muscles was cut and connected with an isometric force transducer (SWEMA, SG 3). In order to maintain constant differences and a resting tension of 100 p, the hind limb was fixed at the tibia by means of a clamp. Direct stimulation of the muscles consisted of square wave pulses of 4 msec duration at a frequency of 2 Hz and at a voltage of 50 V. In order to keep the muscles wet and at a normal temperature, the muscles were continuously superfused by means of a NaCl-solution (0.9%, 38° C.). Femoral blood flow was restricted by a graded occlusion of the artery leading to a reduction of contractility by ca. 30%. After having reached a constant level of the contraction force, the vehicle (NaCl and Methocel, respectively) was injected, followed by the test substance.

skeletal muscle = assay: Oxygen tension (pO2) in skeletal muscle (m. gastrocnemius), femoral artery ligation, Pt-needle electrodes; type: in vivo, cat; conditions: for effect of Compound A, Δ pO2: 125 μg/kg i.v.
Procedure: Cats of either sex were anaesthetized with urethane/chloralose (120/60 mg/kg i.p.). In the course of the experiments, pentobarbital was injected intravenously (V. antebrachii ceph.) via a plastic tube. The intraduodenal (i.d.) application of compound was conducted by means of a plastic catheter, which was inserted into the duodenum.
pO2 was measured polarographically using Pt-needle electrodes (modified according to Baumgartl and Lubbers, 1973). The reference electrode, an Ag/AgCl system was sputtered on the glass mantle of the cathode, or it was a separate electrode. The cathode was coated with a polystyrol and a collodium membrane. A constant voltage supply provided a polarizing voltage between 600 and 800 mV. The reducing current was measured by a nano-ampere amplifying meter. The cathode was inserted in the tissue by means of a motor-driven micromanipulator.
A pO2 -electrode was inserted in the muscle tissue (m. gastrocnemius) of both hindlegs of an anaesthetized cat. After recording the pO2 of the normal perfused muscle, the blood flow to one measuring site was restricted by ligating the femoral artery. The pO2 dropped steeply and the tissue became ischaemic. After a few minutes, the pO2 increased and then decreased again. The values were constant after 30 to 60 min. After having reached a constant level of pO2, the vehicle was given, followed by the test substance.
The mean value and the standard deviation were calculated, in order to check the significance of the effect.

[2] = Blood pressure (BP), initial decrease phase and second increase phase; type: in vivo, cat; conditions: Table 3, 125 μg/kg i.v.
LD50 in mice per oral = conditions: mouse, in vivo
[3] = Solubility in water / aqueous media; type: physicochemical
[4] = in vivo; cited from earlier work

## CCCCn1c(=O)c2c(ncn2CC(C)=O)n(CCCC)c1=O [Compound A, 1,3-di-n-butyl-7-(2-oxopropyl)xanthine]
[1]
  contractility of ischaemic skeletal muscle (in words): distinct increase
  dose range of activity: 0.05 to 0.125 mg/kg
Skeletal muscle; Table 2, control hind limb, individual cats
  effect of Compound A, Δ pO2: 3.8 Torr and 3.5 Torr and 3.4 Torr
Skeletal muscle; Table 2, hind limb with art. ligation, individual cats
  effect of Compound A, Δ pO2: 6.2 Torr and 7.3 Torr and 5.2 Torr and 5.6 Torr
Skeletal muscle; cat
  pO2 of ischaemic skeletal muscle (in words): distinct increase
[2]
  t, time interval to reach initial values, second phase BP increase: 32 min
LD50 in mice per oral
  LD50: > 1000 mg/kg
[3]; aqueous media
  solubility in aqueous media (in words): only sparingly soluble in aqueous media

## CCCCn1c(=O)c2c(ncn2CC(=O)CC)n(CCCC)c1=O [Compound C, 1,3-di-n-butyl-7-(2-oxobutyl)xanthine]
[1]
  changes in contractility and pO2 in comparison with Compound A (in words): less pronounced in comparison with Compound A
  dose range of activity: 5 to 32 mg/kg
[1]; Table 1, ischaemic muscle, i.d., 12.5 mg/kg
  contractility (% initial value): 22 % initial value
Skeletal muscle; Table 1, ischaemic muscle, cat, i.d., 32 mg/kg
  pO2 (increase): 6 mmHg
[3]; water, reason for NT i.v.
  water solubility (in words): low water solubility

## CC(=O)CCCCn1c(=O)c2c(ncn2C)n(C)c1=O [Compound B, pentoxyphylline]
[1]
  changes in contractility and pO2 in comparison with Compound A (in words): less pronounced in comparison with Compound A
  dose range of activity: 5 to 32 mg/kg
Skeletal muscle; Table 2, B at 5 mg/kg vs A at 125 μg/kg, mean
  Mean effect of Compound B compared to Compound A: 21.3%
Skeletal muscle; Table 2, control hind limb, 5 mg/kg i.v., individual cats, 5 mg/kg
  effect of Compound B, Δ pO2: 0.3 Torr
[4]
  oral toxicity (in words): low oral toxicity
